The subject of assay [1] is normal human melanocytes. Kind of assay: Apoptosis and cell cycle of normal human melanocytes treated with z-Leu-Leu-Nle-CHO. Format: cell-based. The method, then:
The effect of z-Leu-Leu-Nle-CHO on apoptosis was tested in vitro using normal human melanocytes and several melanoma cell cultures. Prior to testing, cutaneous (C8161, SK-MeI-28, SK-MeI-100, SK-MeI-5, C81-61), uveal or ocular (MUM2B, MUM2C, OCM-1A), and pulmonary metastases (RJ002L) melanoma cell lines were maintained in RPMI supplemented with 10% FBS. Normal human melanocytes were isolated from neonatal foreskins as previously described (Qin J et al., 2004, Mol Cancer Ther 3:895-902) and cultured with medium 154 containing growth supplements (Cascade Biologics, Portland, Oreg.).
To assess the effect of z-Leu-Leu-Nle-CHO on the cell lines, the cells were grown in suitable culture media. Highly proliferating cells (i.e., cells that had reached approximately 30% confluency) were exposed to z-Leu-Leu-Nle-CHO as described below. […]
Following treatment with z-Leu-Leu-Nle-CHO, the melanoma and melanocyte cell cultures were assayed for apoptotic cells using the APO TARGET Annexin V FITC staining kit (Biosource, Camarillo, Calif.) according to the manufacturer's instructions followed by flow cytometric analysis using FACScaliber (Becton Dickinson, Palo Alto, Calif.) as described in Qin, J. et al., 2001, Nat Med 7:385-386. In some cases, cell cycle and apoptosis analysis was measured using propidium iodide staining and flow cytometry as described. […]

Assay [2] deals with SK-MeI-28 melanoma cells. Kind of assay: Dosing study versus chemotherapeutic agents, killing of SK-MeI-28 melanoma cells. The assay is classed as cell-based, human. To be noted: SK-MeI-28, mutated p53. The procedure: (§1) An initial dosing study comparing z-Leu-Leu-Nle-CHO against three different chemotherapeutic agents (i.e., adriamycin, etoposide, and cisplatin) was performed to evaluate the relative effectiveness of z-Leu-Leu-Nle-CHO in killing melanoma cells. In agreement with a previous report by Soengas, M. S. et al., 2001, Nature 409.207-211, SK-MeI-28 cells, carrying a mutated p53, were relatively resistant to killing by adriamycin, as well as to killing by other chemotherapeutic agents. For SK-MeI-28 melanoma cells, the maximal apoptotic response for adriamycin, etoposide, cisplatin, and z-Leu-Leu-Nle-CHO was 12.0%, 2.6%, 4.0%, and 29.4%, respectively. For RJ002L melanoma cells, the maximal apoptotic response for adriamycin, etoposide, cisplatin, and z-Leu-Leu-Nle-CHO was 23.9%, 12.7%, 3.4%, and 45.7%, respectively.

Assay [3] deals with RJ002L melanoma cells. Kind of assay: Dosing study versus chemotherapeutic agents, killing of RJ002L melanoma cells. The assay is classed as cell-based, human. The method, then: as §1
The test system of assay [4] is SAOS-2 osteosarcoma cells. Kind of assay: z-Leu-Leu-Nle-CHO on NOXA and apoptosis in SAOS-2 osteosarcoma cells. The assay is classed as cell-based. The note with it: 10 μM.
The subject of assay [5] is T47D:C42 breast cancer cells. Kind of assay: Cytotoxicity assay in T47D:C42 breast cancer cells. Format: cell-based. The note with it: T47D:C:4:2; T47D:C42 (p53 wild-type, ERα-negative); 48 h; read-out: IC50, cell growth inhibition. The method, then:
Cytotoxicity and growth of transfected cells were estimated by a standard assay used for cancer drug screening, through the total amount of TCA-precipitated cell proteins after drug treatment (Likhitwitayawuid, K et al., 1993, J Nat Prod 56:30-38): 200 μl of cell suspension (10^5 cells/ml) were added to each well in a 96-well plate. After incubation at, 37° C., in 5% CO2 (30 minutes to 72 hours depending on the time course chosen), 50 μl 50% trichloroacetic acid was added to each well. After incubation at 4° C. for 1 hour, precipitates were washed with water 4-5 times and air dried overnight. One hundred μl of SRB solution (0.4% sulforhodamine B in 1% acetic acid, filtered before use) was added to each well for 30 minutes. Wells were washed with 1% acetic acid 4-5 times and air dried. Two hundred μl 10 mM Tris base was added to each well. Plates were shaken for 5-10 minutes and OD at 490 nm (OD490) was recorded via ELISA reader. To assay matrix invasion, 300 μl of cell suspension (10^6 cells/mL in serum-free medium) were added to invasion inserts (BioCoat Matrigel Invasion Chambers, Becton Dickinson, Bedford, Mass.) and incubated for 22 hours at 37° C., 5% CO2. Cells were stained with 0.9% crystal violet in 10% ethanol for 20 minutes. […] After removal of the non-invading cells from the interior of the inserts, stained invading cells were lysed in 10% acetic acid and OD595 was determined. […]

Square brackets hold non-standard residues; d marks the D form. Peptide text beside a SMILES is read from it. * marks the point of attachment. Nle = CCCC[C@H](N)C(=O)O; Cbz = O=C(OCc1ccccc1)*

In the case of `CCCC[C@@H](C=O)NC(=O)[C@H](CC(C)C)NC(=O)[C@H](CC(C)C)NC(=O)OCc1ccccc1` [z-Leu-Leu-Nle-CHO, N-benzyloxycarbonyl-leucyl-leucyl-norleucinal] (Cbz-Leu-Leu-[Nle]-aldehyde), the cell cycle effect entry in assay [1] (10 μM for 24 h) was “induce a G2/M growth arrest”. Besides, in assay [1] (MC004, MC007, 1-10 μM for 18 h), the induction of apoptosis result is reported as “did not significantly induce apoptosis”. Moreover, the maximal apoptotic response is listed as 29.4% in assay [2] and 45.7% in assay [3]. In assay [4] (SAOS-2, p53 null), the NOXA expression entry is “induced expression of NOXA”. This compound registered a dead cells in assay [4] (SAOS-2, after 24 hrs, data not shown) of over 50%. In addition, the IC50 in assay [5] turned out to be 380 nM.

The values are drawn from patent US20080220416A1, “Compositions for Inhibiting Cell Growth and Inducing Apoptosis in Cancer Cells and Methods of Use Thereof” (THE BOARD OF TRUSTEES OF THE UNIVERSITY OF ILLINOI, priority 2004, published 2008).
